Publication PMC6032158, “Structure–Activity Relationship of Piplartine and Synthetic Analogues against Schistosoma mansoni and Cytotoxicity to Mammalian Cells” (International Journal of Molecular Sciences, 2018)
Entries after “also recorded” stand apart in the source; their conditions may differ.

Tests used:
[1] = system: murine fibroblast (NIH-3T3) cells; assay: MTT cytotoxicity assay in murine fibroblasts; assay type: cell-based
Experimental: Next, the medium was removed and various concentrations (25–800 µg/mL) of samples reconstituted in 3% DMSO were applied. DMSO (3%) was used as a control. The plates were incubated for 24 h. Next, 15 µL of MTT solution (5 mg/mL in phosphate buffer) was added to each well and the plates were incubated for 2 h. Medium was discarded and 100 µL of DMSO was added to each well. Absorbance was determined using a spectrophotometer with a microplate reader at 595 nm (Molecular Devices Corporation, Sunnyvale, CA, USA).

[2] = system: 49-day-old S. mansoni adult worms; assay: In vitro experiments with adult worms of S. mansoni (mortality, motor activity); assay type: cell-based, Schistosoma mansoni; conditions: for Dead Worms (%) F / Motor Activity Reduction (%) Significant F / Motor Activity Reduction (%) Slight F: female worms; for Dead Worms (%) M / Motor Activity Reduction (%) Significant M / Motor Activity Reduction (%) Slight M: male worms
Experimental: The Belo Horizonte (BH) strain of S. mansoni was maintained in Biomphalaria glabrata snails and Mesocricetus auratus hamsters at the Adolfo Lutz Institute (São Paulo, Brazil) according to standard procedures. Detailed methods for the infection of molluscs and hamsters, as well as for the recovery of parasites, were as described previously. Briefly, the intermediate host snails were exposed to light for approximately 3 h and cercariae of S. mansoni were subsequently harvested. […] All animals were handled in strict accordance with good animal practice as defined by the Animal Use Ethics Committee. The preparations and culture of schistosomes was performed as previously described. Briefly, hamsters were killed 49 days after infection for the recovery of adult schistosomes. Next, fresh adult worm pairs (male and female) were washed and placed in a 24-well culture plate (TPP, St. […] Adult schistosomes were maintained continuously in medium (with or without drugs) for 96 h as described below. In vitro assays in S. mansoni adults were performed with mated males and females. The worm pairs obtained from the infusion hamsters were washed twice with RPMI 1640 medium containing 200 U/mL penicillin, 200 μg/mL streptomycin and 2 μg/mL amphotericin B (Vitrocell, Campinas, Brazil). The mated parasites were then transferred into 24-well cell culture plates (TPP, St. […] Cultures of adult worms were monitored by microscopy or magnifying glass. The effect of the drug was assessed with emphasis on changes in worm motor activity and death of worms as previously described.

[3] = system: mouse BALB/cN macrophage (J774A.1) cell line; assay: Cell viability by flow cytometry in macrophages; conditions: 24 h, 25, 100 and 400 µg/mL, vs DMEM control

COc1cc(/C=C/C(=O)N2CCCC2)cc(OC)c1OC [Compound 1G]
effect on NIH-3T3 cell viability (in words) ([1]; MTT, 24 h exposure, 25 to 800 µg/mL): considerable reduction in cell viability at concentrations of 400 and 800 μg/mL; also recorded: showed toxicity at 200, 400 and 800 μg/mL | Emax at 800 µg/mL ([1]; Mus musculus, NIH3T3, 24 h, decrease in cell viability at the maximum concentration tested (800 μg/mL), NIH-3T3, 24 h): 95.69 ± 0.79% | Dead Worms (%) F ([2]; 5 µM, 24 h): 0% | Motor Activity Reduction (%) Significant F ([2]; 5 µM, 24 h): 0% | Motor Activity Reduction (%) Slight F ([2]; 5 µM, 24 h): 0% | Dead Worms (%) M ([2]; 5 µM, 24 h): 0% | Motor Activity Reduction (%) Significant M ([2]; 5 µM, 24 h): 0% | Motor Activity Reduction (%) Slight M ([2]; 5 µM, 24 h): 0% | Dead Worms (%) F ([2]; 5 µM, 48 h): 0% | Motor Activity Reduction (%) Significant F ([2]; 5 µM, 48 h): 0% | Motor Activity Reduction (%) Slight F ([2]; 5 µM, 48 h): 0% | Dead Worms (%) M ([2]; 5 µM, 48 h): 0% | Motor Activity Reduction (%) Significant M ([2]; 5 µM, 48 h): 0% | Motor Activity Reduction (%) Slight M ([2]; 5 µM, 48 h): 0% | Dead Worms (%) F ([2]; 5 µM, 72 h): 0% | Motor Activity Reduction (%) Significant F ([2]; 5 µM, 72 h): 0% | Motor Activity Reduction (%) Slight F ([2]; 5 µM, 72 h): 0% | Dead Worms (%) M ([2]; 5 µM, 72 h): 0% | Motor Activity Reduction (%) Significant M ([2]; 5 µM, 72 h): 0% | Motor Activity Reduction (%) Slight M ([2]; 5 µM, 72 h): 0% | Dead Worms (%) F ([2]; 5 µM, 96 h): 0% | Motor Activity Reduction (%) Significant F ([2]; 5 µM, 96 h): 0% | Motor Activity Reduction (%) Slight F ([2]; 5 µM, 96 h): 0% | Dead Worms (%) M ([2]; 5 µM, 96 h): 0% | Motor Activity Reduction (%) Significant M ([2]; 5 µM, 96 h): 0% | Motor Activity Reduction (%) Slight M ([2]; 5 µM, 96 h): 0% | Dead Worms (%) F ([2]; 10 µM, 24 h): 0% | Motor Activity Reduction (%) Significant F ([2]; 10 µM, 24 h): 0% | Motor Activity Reduction (%) Slight F ([2]; 10 µM, 24 h): 0% | Dead Worms (%) M ([2]; 10 µM, 24 h): 0% | Motor Activity Reduction (%) Significant M ([2]; 10 µM, 24 h): 0% | Motor Activity Reduction (%) Slight M ([2]; 10 µM, 24 h): 0% | Dead Worms (%) F ([2]; 10 µM, 48 h): 0% | Motor Activity Reduction (%) Significant F ([2]; 10 µM, 48 h): 0% | Motor Activity Reduction (%) Slight F ([2]; 10 µM, 48 h): 0% | Dead Worms (%) M ([2]; 10 µM, 48 h): 0% | Motor Activity Reduction (%) Significant M ([2]; 10 µM, 48 h): 0% | Motor Activity Reduction (%) Slight M ([2]; 10 µM, 48 h): 0% | Dead Worms (%) F ([2]; 10 µM, 72 h): 0% | Motor Activity Reduction (%) Significant F ([2]; 10 µM, 72 h): 0% | Motor Activity Reduction (%) Slight F ([2]; 10 µM, 72 h): 0% | Dead Worms (%) M ([2]; 10 µM, 72 h): 0% | Motor Activity Reduction (%) Significant M ([2]; 10 µM, 72 h): 0% | Motor Activity Reduction (%) Slight M ([2]; 10 µM, 72 h): 0% | Dead Worms (%) F ([2]; 10 µM, 96 h): 0% | Motor Activity Reduction (%) Significant F ([2]; 10 µM, 96 h): 0% | Motor Activity Reduction (%) Slight F ([2]; 10 µM, 96 h): 0% | Dead Worms (%) M ([2]; 10 µM, 96 h): 0% | Motor Activity Reduction (%) Significant M ([2]; 10 µM, 96 h): 0% | Motor Activity Reduction (%) Slight M ([2]; 10 µM, 96 h): 0% | Dead Worms (%) F ([2]; 25 µM, 24 h): 0% | Motor Activity Reduction (%) Significant F ([2]; 25 µM, 24 h): 0% | Motor Activity Reduction (%) Slight F ([2]; 25 µM, 24 h): 0% | Dead Worms (%) M ([2]; 25 µM, 24 h): 0% | Motor Activity Reduction (%) Significant M ([2]; 25 µM, 24 h): 0% | Motor Activity Reduction (%) Slight M ([2]; 25 µM, 24 h): 0% | Dead Worms (%) F ([2]; 25 µM, 48 h): 0% | Motor Activity Reduction (%) Significant F ([2]; 25 µM, 48 h): 0% | Motor Activity Reduction (%) Slight F ([2]; 25 µM, 48 h): 0% | Dead Worms (%) M ([2]; 25 µM, 48 h): 0% | Motor Activity Reduction (%) Significant M ([2]; 25 µM, 48 h): 0% | Motor Activity Reduction (%) Slight M ([2]; 25 µM, 48 h): 0% | Dead Worms (%) F ([2]; 25 µM, 72 h): 0% | Motor Activity Reduction (%) Significant F ([2]; 25 µM, 72 h): 0% | Motor Activity Reduction (%) Slight F ([2]; 25 µM, 72 h): 0% | Dead Worms (%) M ([2]; 25 µM, 72 h): 0% | Motor Activity Reduction (%) Significant M ([2]; 25 µM, 72 h): 0% | Motor Activity Reduction (%) Slight M ([2]; 25 µM, 72 h): 0% | Dead Worms (%) F ([2]; 25 µM, 96 h): 0% | Motor Activity Reduction (%) Significant F ([2]; 25 µM, 96 h): 0% | Motor Activity Reduction (%) Slight F ([2]; 25 µM, 96 h): 0% | Dead Worms (%) M ([2]; 25 µM, 96 h): 0% | Motor Activity Reduction (%) Significant M ([2]; 25 µM, 96 h): 0% | Motor Activity Reduction (%) Slight M ([2]; 25 µM, 96 h): 0% | Dead Worms (%) F ([2]; 50 µM, 24 h): 0% | Motor Activity Reduction (%) Significant F ([2]; 50 µM, 24 h): 0% | Motor Activity Reduction (%) Slight F ([2]; 50 µM, 24 h): 0% | Dead Worms (%) M ([2]; 50 µM, 24 h): 0% | Motor Activity Reduction (%) Significant M ([2]; 50 µM, 24 h): 0% | Motor Activity Reduction (%) Slight M ([2]; 50 µM, 24 h): 0% | Dead Worms (%) F ([2]; 50 µM, 48 h): 0% | Motor Activity Reduction (%) Significant F ([2]; 50 µM, 48 h): 0% | Motor Activity Reduction (%) Slight F ([2]; 50 µM, 48 h): 0% | Dead Worms (%) M ([2]; 50 µM, 48 h): 0% | Motor Activity Reduction (%) Significant M ([2]; 50 µM, 48 h): 0% | Motor Activity Reduction (%) Slight M ([2]; 50 µM, 48 h): 0% | Dead Worms (%) F ([2]; 50 µM, 72 h): 0% | Motor Activity Reduction (%) Significant F ([2]; 50 µM, 72 h): 0% | Motor Activity Reduction (%) Slight F ([2]; 50 µM, 72 h): 0% | Dead Worms (%) M ([2]; 50 µM, 72 h): 0% | Motor Activity Reduction (%) Significant M ([2]; 50 µM, 72 h): 0% | Motor Activity Reduction (%) Slight M ([2]; 50 µM, 72 h): 0% | Dead Worms (%) F ([2]; 50 µM, 96 h): 0% | Motor Activity Reduction (%) Significant F ([2]; 50 µM, 96 h): 0% | Motor Activity Reduction (%) Slight F ([2]; 50 µM, 96 h): 0% | Dead Worms (%) M ([2]; 50 µM, 96 h): 0% | Motor Activity Reduction (%) Significant M ([2]; 50 µM, 96 h): 0% | Motor Activity Reduction (%) Slight M ([2]; 50 µM, 96 h): 0% | activity against S. mansoni adult worms (in words) ([2]; analogues 50, 25, 10 and 5 μM, piplartine 5 and 10 μM, up to 96 h): did not exhibit antischistosome activity at the concentrations tested | effect on J774A.1 cell viability (in words) [3]: significantly altered (p < 0.05) cell viability in comparison with the negative control, but not in a toxic manner
